Consider one compound from article doi:10.1101/2025.03.27.645769, “Structural Insights into Kainate Receptor Desensitization” (bioRxiv, 2025).

This assay concerns the target T1, GluK2 (Rattus norvegicus, UniProt P42260).
T1 construct: gene Grik2; wild-type rat GluK2 expressed in HEK293T cells
The assay can be described thus: whole-cell patch-clamp, potentiation of glutamate-evoked peak current. In kind it is cell-based.

T1 sequence (P42260 32-908): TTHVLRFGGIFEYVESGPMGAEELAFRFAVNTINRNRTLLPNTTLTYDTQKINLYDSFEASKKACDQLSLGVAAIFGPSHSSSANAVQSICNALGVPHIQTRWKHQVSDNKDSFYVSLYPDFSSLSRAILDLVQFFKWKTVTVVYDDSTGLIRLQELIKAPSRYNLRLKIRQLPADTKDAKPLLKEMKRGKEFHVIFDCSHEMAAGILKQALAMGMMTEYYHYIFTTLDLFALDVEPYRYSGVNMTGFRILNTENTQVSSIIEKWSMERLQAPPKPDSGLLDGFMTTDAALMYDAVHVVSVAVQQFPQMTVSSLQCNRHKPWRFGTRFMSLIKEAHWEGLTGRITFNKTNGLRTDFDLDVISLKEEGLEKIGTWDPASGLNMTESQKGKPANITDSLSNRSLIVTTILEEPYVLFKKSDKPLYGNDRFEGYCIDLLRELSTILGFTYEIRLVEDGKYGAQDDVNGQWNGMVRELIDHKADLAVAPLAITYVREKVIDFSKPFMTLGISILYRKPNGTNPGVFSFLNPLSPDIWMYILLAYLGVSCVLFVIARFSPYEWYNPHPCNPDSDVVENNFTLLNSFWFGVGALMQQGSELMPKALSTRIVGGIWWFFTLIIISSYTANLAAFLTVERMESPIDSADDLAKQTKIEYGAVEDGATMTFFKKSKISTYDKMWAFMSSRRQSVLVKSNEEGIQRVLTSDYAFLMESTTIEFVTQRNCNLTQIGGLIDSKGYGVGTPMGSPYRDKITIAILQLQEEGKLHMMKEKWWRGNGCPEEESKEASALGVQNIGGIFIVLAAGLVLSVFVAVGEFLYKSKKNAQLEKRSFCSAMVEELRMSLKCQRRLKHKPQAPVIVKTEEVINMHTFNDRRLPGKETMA

Turning to `O=S1(=O)NCN(C2CC2)c2ccc(F)cc21` [BPAM344], the “whole-cell patch-clamp, potentiation of glutamate-evoked peak current” value is reported as “Potentiation of the peak current amplitudes (Ipeak) of GluK2 WT (left)”.
